Experimental data reported in patent publication US20230058189A1, “QUINOLIN-4-ONE AND 4(1H)-CINNOLINONE COMPOUNDS AND METHODS OF USING SAME” (Frequency Therapeutics, Inc., priority 2019, published 2023).

Tested on: Lgr5+ cells (cochlear stem cells)
Experiment: Lgr5+ assay: expansion of Lgr5-positive cochlear cells in 3D culture
Assay type: cell-based, mouse
Conditions: for % of Lgr5+ Positive Cells / Potency (Lgr5+ activity): 10 days culture with EGF, bFGF, IGF1, approximate values; for Potency (Lgr5+ activity): effective concentration for Lgr5+ expansion; for Lgr5 GFP+ progenitor cell proliferation (Lgr5 positive cell count) / enrichment of Lgr5 GFP+ cochlear progenitor cells (percent of Lgr5 positive cells): in a background of growth factors, compared to CHIR-99021 and its combinations (figures)
From the text: “Stem Cell Proliferation Assay” as used herein is an assay to determine the capacity for agent(s) to induce the creation of stem cells from a starting cell population. In an exemplary Stem Cell Proliferation Assay, the number of cells for an initial cell population is harvested from a Lgr5-GFP mouse such as a B6.129P2-Lgr5tm1(cre/ERT2)Cle/J mouse (also known as Lgr5-EGFP-IRES-creERT2 or Lgr5-GFP mouse, Jackson Lab Stock No: 008875) between the age of 3 to 7 days, by isolating the organ of Corti sensory epithelium and dissociating the epithelium into single cells. Approximately 5000 cells are entrapped in 40 μl of culture substrate (for example, Matrigel (Corning, Growth Factor Reduced)) and placed at the center of wells in a 24-well plate with 500 μl of an appropriate culture media, growth factors and agent being tested. Appropriate culture media and growth factors include Advanced DMEM/F12 with media supplements (1×N2, 1×B27, 2 mM Glutamax, 10 mM HEPES, 1 mM N-acetylcysteine, and 100 U/ml penicillin/100 μg/ml streptomycin) and growth factors (50 ng/ml EGF, 50 ng/ml bFGF, and 50 ng/ml IGF-1) as well as the agent(s) being assessed are added into each well. Cells are cultured for 10 days in a standard cell culture incubator at 37° C. and 5% CO2, with media change every 2 days. The number of Lgr5^+ cells is quantified by counting the number of cells identified as Lgr5+ in an in vitro Lgr5 activity assay (i.e., an assay mearing in vitro Lgr5 activity). The fraction of cells that are Lgr5^+ is quantified by dividing the number of cells identified as Lgr5^+ in a cell population by the total number of cells present in the cell population. The average Lgr5^+ activity of a population is quantified by measuring the average mRNA expression level of Lgr5 of the population normalized using suitable and unregulated references or housekeeping genes (e.g., Hprt). The number of hair cells in a population may be measured by staining with hair cell marker (e.g., MyosinVIIa), or using an endogenous reporter of hair cell genes (e.g., Pou4f3-GFP, Atoh1-nGFP) and analyzing using flow cytometry. The fraction of cells that are hair cells is quantified by dividing the number of cells identified as hair cells in a cell population by the total number of cells present in the cell population. Lgr5 activity can be measured by qPCR.
The compounds of the present disclosure were used in Lgr5-EGFP-IRES-Cre-ER mice (Barker et al., 2007) to analyze the effects of small molecules on cochlear stem cell expansion.
Isolation of stem cells from the inner ear: All animal studies were conducted under an approved institutional protocol according to National Institutes of Health guidelines. For experiments with neonatal mice (postnatal days 1-3), the cochleae were dissected in Hank's Balanced Salt Solution (HBSS) and the organs of Corti were separated from the stria vascularis and the modiolus. The organs of Corti were then treated with Cell Recovery Solution (Corning) for 1 hour to separate cochlear epithelium from the underlying mesenchyme. Epithelia were then collected and treated with TrypLE (Life Technologies) for 15-20 minutes at 37° C. Single cells obtained by mechanical trituration were filtered (40 μm) and suspended in Matrigel® (Corning) for 3D culture.
Cells were cultured in a 1:1 mixture of DMEM and F12, supplemented with Glutamax (GIBCO), N2, B27 (Invitrogen), EGF (50 ng/ml; Chemicon), bFGF (50 ng/ml; Chemicon), IGF1 (50 ng/ml; Chemicon) and the composition provided herein. Medium was changed every other day.
Lgr5-positive cells were quantified after 10 days (D10) in culture in multiple conditions. Cell colonies were dissociated into single cells using TrypLE (Gibco). The cells were then stained with propidium iodide (P1) and were analyzed using a flow cytometer for Lgr5-GFP expression. The number of GFP-positive cells and the percentage of GFP-positive cells were quantified. […]

Compound	% of Lgr5+ Positive Cells	Potency (Lgr5+ activity)	Lgr5 GFP+ progenitor cell proliferation (Lgr5 positive cell count)	enrichment of Lgr5 GFP+ cochlear progenitor cells (percent of Lgr5 positive cells)
CCn1cc(C(=O)O)c(=O)c2c(N)c(F)c(N[C@@H]3C[C@@H]3c3ccccc3)cc21 (relative stereo) [Compound I-23]	14%	2.2 µM	–	–
CCn1cc(C(=O)O)c(=O)c2c(N)c(F)c(N3CCC(N[C@@H]4C[C@H]4c4ccccc4)CC3)cc21 (relative stereo) [Compound I-26]	<5%	>10 µM	–	–
CCn1cc(C(=O)O)c(=O)c2c(N)c(F)c(N[C@H]3CC[C@H](N[C@@H]4C[C@H]4c4ccccc4)CC3)cc21 (relative stereo) [Compound I-27]	26%	1.1 µM	–	–
CCn1cc(C(=O)O)c(=O)c2c(N)c(F)c(N[C@H]3CC[C@@H](N[C@@H]4C[C@H]4c4ccccc4)CC3)cc21 (relative stereo) [Compound I-28]	40%	8 µM	generates Lgr5 GFP+ progenitor cell proliferation	generates enrichment of Lgr5 GFP+ cochlear progenitor cells
CCn1cc(C(=O)O)c(=O)c2c(N)c(F)c(NCCN[C@@H]3C[C@H]3c3ccccc3)cc21 (relative stereo) [Compound I-29]	38%	4 µM	generates Lgr5 GFP+ progenitor cell proliferation	generates enrichment of Lgr5 GFP+ cochlear progenitor cells
CCn1cc(C#N)c(=O)c2c(N)c(F)c(N[C@@H]3C[C@H]3c3ccccc3)cc21 (relative stereo) [Compound I-38]	7.5%	0.123 µM	–	–
CCn1cc(C(=O)O)c(=O)c2c(N)c(F)c(NC3CC(N[C@@H]4C[C@H]4c4ccccc4)C3)cc21 (relative stereo) [Compound I-70]	30%	3.3 µM	–	–
CCn1cc(C(=O)O)c(=O)c2c(N)c(F)c(NCCN[C@@H]3C[C@]34CCc3ccccc34)cc21 (relative stereo) [Compound I-81]	65%	10 µM	–	–
CCn1cc(C(=O)O)c(=O)c2c(N)c(F)c(NCCN[C@@H]3C[C@@]34CCc3ccccc34)cc21 (relative stereo) [Compound I-82]	48%	10 µM	–	–
CCn1cc(C(N)=O)c(=O)c2c(N)c(F)c(NCCN[C@H]3C[C@@H]3c3ccccc3)cc21 (relative stereo) [Compound I-83]	12%	1.1 µM	–	–
CCn1cc(C#N)c(=O)c2c(N)c(F)c(NCCN[C@@H]3C[C@H]3c3ccccc3)cc21 (relative stereo) [Compound I-84]	9%	1.1 µM	–	–
Cn1cc(C(=O)O)c(=O)c2c(N)c(F)c(NCCN[C@@H]3C[C@H]3c3ccccc3)cc21 (relative stereo) [Compound I-86]	4%	>30 µM	–	–
CCCn1cc(C(=O)O)c(=O)c2c(N)c(F)c(NCCN[C@@H]3C[C@H]3c3ccccc3)cc21 (relative stereo) [Compound I-87]	52%	3.3 µM	–	–
CC(C)n1cc(C(=O)O)c(=O)c2c(N)c(F)c(NCCN[C@@H]3C[C@H]3c3ccccc3)cc21 (relative stereo) [Compound I-88]	32%	1.1 µM	–	–
